# Patent publication US9023789B2, “Amylin analogs and pharmaceutical compositions thereof” (Novo Nordisk A/S, priority 2012, dated 2015)
# Experiments:
# [1] = biological target: T1, rat amylin receptor (rat calcitonin receptor + rat RAMP 3) (Rattus norvegicus, UniProt P32214+Q9JJ73); experiment: ASSAY (VI) binding to the rat amylin receptor
# T1 construct: expressed in transfected cells; host or cells: BHK tk'ts 13 (transient, FuGENE 6), membranes
# T1 sequence (P32214 25-479 isoform P32214-2 limits assumed): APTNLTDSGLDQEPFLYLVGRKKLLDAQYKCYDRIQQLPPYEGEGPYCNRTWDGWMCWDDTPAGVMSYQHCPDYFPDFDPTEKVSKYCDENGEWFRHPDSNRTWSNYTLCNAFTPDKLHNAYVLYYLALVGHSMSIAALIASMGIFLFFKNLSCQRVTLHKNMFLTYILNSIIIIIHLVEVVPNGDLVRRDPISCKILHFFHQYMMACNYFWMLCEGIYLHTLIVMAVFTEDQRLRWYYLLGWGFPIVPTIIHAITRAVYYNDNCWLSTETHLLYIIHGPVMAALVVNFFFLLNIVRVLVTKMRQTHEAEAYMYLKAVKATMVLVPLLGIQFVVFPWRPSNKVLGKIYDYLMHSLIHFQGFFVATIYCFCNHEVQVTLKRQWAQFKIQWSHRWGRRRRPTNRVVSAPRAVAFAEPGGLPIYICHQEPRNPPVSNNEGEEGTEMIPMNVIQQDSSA
# T1 sequence (Q9JJ73 23-147 partner): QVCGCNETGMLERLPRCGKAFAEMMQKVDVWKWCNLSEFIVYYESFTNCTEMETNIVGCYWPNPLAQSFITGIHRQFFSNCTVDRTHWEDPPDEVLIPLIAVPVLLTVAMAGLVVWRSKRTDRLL
# Protocol: Assay (VI)—Determination of the Binding to the Rat Amylin Receptor […] The BHK tk′ts 13 cells were transiently transfected with rat calcitonin receptor using FuGENE® 6 (Roche), according to the manufacturer's recommendations. […] Approximately 48 hours after transfection, the cells were harvested and membranes were prepared.
# [2] = biological target: T2, human amylin 3(a) receptor (human calcitonin receptor + RAMP-3) in BHK570 cells (Homo sapiens, UniProt O60896+P30988); experiment: ASSAY (II)a functional assay, human amylin receptor (CRE luciferase); type: cell-based
# T2 construct: expressed in transfected cells
# Description: 1. Luciferase Assay Outline
# Activation of calcitonin and amylin (coexpression of calcitonin receptor and receptor activity modifying proteins (RAMP)) receptors lead to increased intracellular concentrations of cAMP. Consequently, transcription is activated by promoters containing multiple copies of the cAMP response element (CRE). It is thus possible to measure amylin activity by the use of a CRE luciferase reporter gene introduced into BHK cells also expressing calcitonin or amylin receptors.
# 2. Construction of Calcitonin (a)- and Amylin 3(a)-Receptor/CRE-Luc Cell Line.
# The cell line was further transfected with RAMP-3, using standard methods. This turns the calcitonin receptor into an amylin 3(a) receptor. Methotrexate, Neomycin, and Hygromycin are selection markers for luciferase, the calcitonin receptor, and RAMP-3, respectively.
# To perform activity assays, BHK calcitonin (a) receptor- or amylin 3(a)-receptor/CRE-luc cells were seeded in white 96 well culture plates at a density of about 20.000 cells/well. […] After incubation overnight at 37° C. and 5% CO2, the growth medium was replaced by 50 μl/well assay medium (DMEM (without phenol red), Glutamax™, 10% FBS, and 10 mM Hepes, pH 7.4). Further, 50 μl/well of standard or sample in assay buffer were added. After 3 hours incubation at 37° C. and 5% CO2, the assay medium with standard or sample were removed and replaced by 100 μl/well PBS. Further, 100 μl/well LucLite™ was added. The plates were sealed and incubated at room temperature for 30 minutes. Finally, luminescence was measured on a TopCounter (Packard) in SPC (single photon counting) mode.
# Sprague Dawley (SD) rats = experiment: ASSAY (I) efficacy testing on appetite (food intake) using an ad libitum fed rat model; type: in vivo; settings: rat, 30 nmol/kg
# Description: Sprague Dawley (SD) rats from Taconic Europe, Denmark are used for the experiments. The rats have a body weight 200-250 g at the start of experiment. The rats arrive at least 10-14 days before start of experiment to allow acclimatization to experimental settings. During this period the animals are handled at least 2 times. After arrival rats are housed individually for one week in a reversed light/dark phase (meaning that lights are off during daytime and on during nighttime) for two weeks. Since rats are normally active and eat their major part of their daily food intake during the dark period, rats are dosed in the morning right before lights are turned off. This set-up results in the lowest data variation and highst test sensitivity. The experiment is conducted in the rats' home cages and rats have free access to food and water throughout the acclimatization period and the experiment period. Each dose of derivative is tested in a group of 5-8 rats. A vehicle group of 6-8 rats is included in each set of testing. Rats are dosed once according to body weight with a 0.01-3 mg/kg solution administered intraperitoneally (ip), orally (po) or subcutaneously (sc). The time of dosing is recorded for each group. After dosing, the rats are returned to their home cages, where they then have access to food and water. The food consumption is recorded individually continuously by online registration or manually every hour for 7 hours, and then after 24 h and sometimes 48 h. At the end of the experimental session, the animals are euthanized.
# The individual data are recorded in Microsoft excel sheets. Outliers are excluded after applying the Grubbs statistical evaluation test for outliers, and the result is presented graphically using the GraphPad Prism program.
# [3] = biological target: T3, human amylin receptor (membranes from Amylin 3(a)/CRE-luc cells) (Homo sapiens, UniProt O60896+P30988); experiment: ASSAY (V) binding to the human amylin receptor (SPA, 125I-rat amylin);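 further: competition binding of cell membranes (35 ng/µL) mixed with SPA beads in 384-well plates at 40 µL total volume, read by scintillation counting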
# T3 construct: expressed in transfected cells
# T3 sequence (P30988 25-474): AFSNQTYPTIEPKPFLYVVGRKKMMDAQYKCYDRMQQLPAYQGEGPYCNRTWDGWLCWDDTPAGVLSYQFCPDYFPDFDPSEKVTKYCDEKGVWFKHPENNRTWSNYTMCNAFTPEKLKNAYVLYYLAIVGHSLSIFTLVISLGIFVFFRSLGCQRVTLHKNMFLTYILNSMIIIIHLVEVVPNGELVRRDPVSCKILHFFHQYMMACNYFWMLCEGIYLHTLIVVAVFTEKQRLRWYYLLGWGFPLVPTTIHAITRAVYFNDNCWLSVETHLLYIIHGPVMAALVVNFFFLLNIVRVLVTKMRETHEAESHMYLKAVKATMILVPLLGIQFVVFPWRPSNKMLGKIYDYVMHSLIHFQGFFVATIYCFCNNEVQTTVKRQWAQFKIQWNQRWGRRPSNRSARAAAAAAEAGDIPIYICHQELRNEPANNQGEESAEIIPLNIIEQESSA
# T3 sequence (O60896 24-148 partner): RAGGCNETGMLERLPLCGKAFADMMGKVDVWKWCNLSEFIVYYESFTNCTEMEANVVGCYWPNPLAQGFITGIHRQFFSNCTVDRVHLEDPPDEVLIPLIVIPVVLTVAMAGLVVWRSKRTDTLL
# rat calcitonin receptor = biological target: T4, rat calcitonin receptor (Rattus norvegicus, UniProt P32214); experiment: ASSAY (VIII) binding to the rat calcitonin receptor; settings: Table 7, read-out: rCTR bind IC50
# T4 construct: expressed in transfected cells; host or cells: BHK tk'ts 13 (transient, FuGENE 6), membranes
# T4 sequence (P32214 25-479 isoform P32214-2 limits assumed): T1 sequence (P32214 25-479 isoform P32214-2 limits assumed)
# Protocol: Assay (VIII)—Determination of Binding to the Rat Calcitonin Receptor
# The BHK tk′ts 13 cells were transiently transfected with rat calcitonin receptor using FuGENE® 6 (Roche), according to the manufacturer's recommendations. Cells were grown in DMEM with 10% FBS and 1% Pen/Strep. Approximately 48 hours after transfection, the cells were harvested and membranes were prepared.
smiles,measurement,setting,value
CC[C@H](C)[C@H](NC(=O)[C@H](C)NC(=O)CNC(=O)[C@H](Cc1ccccc1)NC(=O)[C@H](CC(N)=O)NC(=O)[C@@H]1CCCN1C(=O)[C@H](CO)NC(=O)[C@H](CO)NC(=O)[C@H](Cc1c[nH]cn1)NC(=O)[C@H](CCCNC(=N)N)NC(=O)[C@H](CC(C)C)NC(=O)[C@H](Cc1ccccc1)NC(=O)[C@@H](CC(=O)O)NC(=O)[C@H](C)NC(=O)[C@H](CC(C)C)NC(=O)[C@H](CCCNC(=N)N)NC(=O)[C@H](CCC(N)=O)NC(=O)[C@@H](NC(=O)[C@H](C)NC(=O)[C@@H]1CSSC[C@H](NC(=O)[C@@H](N)CCCCNC(=O)CC[C@H](NC(=O)CC[C@H](NC(=O)CCCCCCCCCCCCCCCCCCC(=O)O)C(=O)O)C(=O)O)C(=O)N[C@@H](CC(N)=O)C(=O)N[C@@H]([C@@H](C)O)C(=O)N[C@@H](C)C(=O)N[C@@H]([C@@H](C)O)C(=O)N1)[C@@H](C)O)C(=O)N1CCC[C@H]1C(=O)N[C@@H](CO)C(=O)N[C@@H](CO)C(=O)N[C@H](C(=O)N[C@@H](CC(N)=O)C(=O)N[C@H](C(=O)NCC(=O)N[C@@H](CO)C(=O)N[C@@H](CCCNC(=N)N)C(=O)N[C@H](C(=O)N[C@@H](Cc1ccc(O)cc1)C(N)=O)[C@@H](C)O)C(C)C)[C@@H](C)O [Example 131],IC50,"[1]; Table 7, binding to rat amylin receptor, read-out: rAmylin-R bind IC50",1.69 nM
same,Ratio rCT/rAmylin binding,"[1]; Table 7, rat binding selectivity, rCTR IC50 / rAmylin-R IC50",316.7
same,Ratio rCT/rAmylin binding,"[1]; Table 7a (preferred compounds), rat binding selectivity, rCTR IC50 / rAmylin-R IC50",316.7
same,Ratio rCT/rAmylin binding,[1]; ratio of rCTR bind IC50 to rAmylin-R bind IC50,316.7
same,Ratio hCT/hAmylin funct.,[2]; hCTR funct. EC50 divided by hAmylin-R funct. EC50,261.1
same,Ratio hCT/hAmylin funct.,[2]; hCTR funct. EC50 over hAmylin-R funct. EC50,261.1
same,Ratio hCT/hAmylin funct.,[2]; human functional selectivity: hCTR funct. EC50 / hAmylin-R funct. EC50,261.1
same,Food intake reduction 0-24 h 30 nmol/kg (%),Sprague Dawley (SD) rats; 0-24 h,17%
same,Food intake reduction 24-48 h 30 nmol/kg (%),Sprague Dawley (SD) rats; 24-48 h,14%
same,Ratio hCT/hAmylin binding,"[3]; Table 5, selectivity, hCTR bind IC50 / hAmylin-R bind IC50",306.6
same,Ratio hCT/hAmylin binding,"[3]; Table 5a, selectivity, hCTR bind IC50 / hAmylin-R bind IC50",306.6
same,Ratio hCT/hAmylin binding,"[3]; Table 5b, selectivity, hCTR bind IC50 / hAmylin-R bind IC50",306.6
same,Ratio hCT/hAmylin binding,"[3]; Table 5c, selectivity, hCTR bind IC50 / hAmylin-R bind IC50",306.6
same,Ratio hCT/hAmylin binding,"[3]; Table 7, human binding selectivity, included for comparison",306.6
same,Ratio hCT/hAmylin binding,"[3]; Table 7a (preferred compounds), human binding selectivity, included for comparison",306.6
same,Ratio hCT/hAmylin binding,[3]; ratio of human calcitonin receptor binding IC50 to human amylin receptor binding IC50,306.6
same,IC50,rat calcitonin receptor,536 nM
